Experimental data reported in article PMC11314205, “Incorporation of an Isohexide Subunit into the Endochin-like Quinolone Scaffold” (Molecules, 2024).
pEC50, pIC50: −log10 of the molar value. Values after ≈ are worked out from the molar mass of the structure shown. “Also recorded” adds a separate entry of the source. Like-named read-outs stand apart in the source and are kept apart here.

Legend:
[1] = system: chloroquine-sensitive Plasmodium falciparum strain 3D7 (MRA-102); assay: In vitro screening against chloroquine-sensitive P. falciparum 3D7; assay type: cell-based
Description: (§1) The ELQs 14–17 were tested against the chloroquine-sensitive Plasmodium falciparum strain 3D7 (MRA-102), as provided by the MR4 Unit of the American Type Culture Collection (ATCC, Manassas, VA, USA). Details of the assay have been previously published. Cytotoxicity IC50 values for 14–17 were obtained on human BJ fibroblasts as previously described. [table]

[2] = Kinetic (report: thermodynamic) solubility in pH 7.4 phosphate buffer, quantitative LC-MS; assay type: physicochemical; details: phosphate buffer pH 7.4, room temperature, LC-MS (supplementary report); for solubility at 20 h: phosphate buffer, 23 °C, pH 7.4, aqueous buffer, thermodynamic from solid
Description: Title: Thermodynamic Solubility Study in Phosphate Buffer 7.4 Date: 02/24/2023 […]
The goal of this study is to determine the thermodynamic solubility values for compounds: JS -13, JS-14, JS-17 and JS-18 in phosphate buffer pH 7.4.
Compound ID Solubility (µM) Solubility (mg/mL)
The scope of the thermodynamic (equilibrium) solubility experiment is to investigate the solubility of the compounds in a saturated solution. For this method, phosphate buffer is added to solid compound and mixed at room temperature for […] to ensure that equilibrium is achieved. To determine concentrations to generate calibration curves and for the equilibrated compounds (in buffer) a general LC-MS method was developed. The method includes a high-resolution separation by a UPLC unit as well as a high sensitivity ion detection by a mass spectrometer equipped with an electrospray ionization probe. For calibration curves the compounds were dissolved in DMSO and diluted by ACN. The supernatant of the equilibrated samples, after a 2-step centrifugation process, were also diluted by ACN to ensure full solubilization.
(1 picture or pasted object on this page, not shown here)
The experiment was carried out as recommended by AstraZeneca’s Mechanistic Biology & Profiling, Discovery Sciences, R&D group (AstraZeneca, Gothenburg, Sweden). The method was published in ASSAY and Drug Development Technologies; Title: “A Fully Integrated Assay Panel for Early Drug Metabolism and […]
• The experiment was performed on December 3, 2022
A Shimadzu LC-40D XR HPLC system equipped with a PDA detector (Model: SPD-M40) and connected to an LCMS-2020 mass spectrometer was utilized for determining sample concentrations. For HPLC separation an XBridge C18 column (4.6x50 mm, […] particle size) from Waters Inc. was used, the column oven temperature was set at 40°C. To determine the concentration of the compounds, eluent A containing 0.1% trifluoroacetic acid (TFA) in water, eluent B containing 0.1% TFA in acetonitrile and a linear gradient (5-100% B in 3 min) were utilized. Molecular ions (MH+) were generated by combined ESI and APCI ionization methods and collected by a DUIS detector. The mass spectrometer was calibrated by standards provided by Shimadz u Scientific Instruments. Single ion monitoring (SIM) methods were used to maximize sensitivity for each compound as described in Table […]
Compound ID Primary Ion Secondary Ion Note
+ + 414.15+ is identical to MH+ generated
• To establish calibration curves, the weighted compounds were dissolved in 100 µL of dimethyl sulfoxide (DMSO) and diluted by 400 µL of acetonitrile (ACN). The stock solution was further diluted by ACN (5x, in 5 steps). For all LC-MS experiments 5 µL sample was injected. To perform equilibration studies, 500 µL phosphate buffer was added to each weighted compound. The results slurries were stirred at room temperature for 20 hr. After equilibration, the samples were transferred to […]
Eppendorf tubes and centrifuged for 30 min at 2,000 x g. 200 µL of the supernatant of each sample was transferred and centrifuged again f or 30 min at 2,000 x g. Dilution and LC-MS analyses were performed as described for the calibration curves.
ACN, DMSO and HPLC quality water were purchased from MilliporeSigma Inc.
TFA (99.9% purity) was from Chem-Impex International Inc.
• The data was archived in the MD&S Laboratory electronic notebook (ChemCart, DeltaSoft Inc.) on […]
• Data processing software used: Microsoft Office 365 – Excel.
3.1 Structures, molecular weights
Compound Chemical Exact SMILE
[C@]4([H])OC3)C=C2)=C(C)NC5=CC=C(Cl)C=C51
[H])OC3)C=C2)=C(C)NC5=CC=C(Cl)C=C51
4([H])OC3)C=C2)=C(C)NC5=CC=C(Cl)C=C51
C@]4([H])OC3)C=C2)=C(C)NC5=CC=C(Cl)C=C51
Table 2. Compound IDs, chemical formulas, exact (monoisotopic) molecular weights, SMILE notations

[3] = Cytotoxicity on BJ fibroblasts, CTG reagent; assay type: cell-based; details: human BJ fibroblasts, 72 h exposure at 37 °C, read-out: Cytotox. IC50
Description: as §1

[4] = Kinetic (report: thermodynamic) solubility in pH 7.4 phosphate buffer, quantitative LC-MS; assay type: physicochemical; details: 23 °C
D6 = system: D6; set-up: method as in PMID 24720377; details: strain D6; cited from earlier work
Dd2 = system: Dd2; set-up: method as in PMID 24720377; details: strain Dd2; cited from earlier work
Tm90-C2B = system: Tm90-C2B; set-up: method as in PMID 24720377; details: strain Tm90-C2B; cited from earlier work
[5] = system: human hepatoma-derived HepG2 cells; set-up: method as in PMID 24720377; details: read-out: Cytotox. IC50; cited from earlier work
[6] = set-up: method as in PMID 23515079; details: cited from earlier work
[7] = P. falciparum strain 3D7, read-out: EC50 (antimalarial potency)
[8] = chloroquine-sensitive P. falciparum strain 3D7, read-out: EC50

SMILES | pEC50 [1, 7] | solubility at 20 h ([2]; read-out: Solubility) | solubility at 20 h ([2]; read-out: Solubility (mg/mL)) | solubility thermodynamic at 20 h [4] | pEC50 [1, 8] | IC50 at 72 h [3] | further results
Cc1[nH]c2ccc(Cl)cc2c(=O)c1-c1ccc(O[C@H]2CO[C@H]3[C@@H]2OC[C@@H]3O)cc1 [Compound 15, 6-Chloro-3-(4-(((3S,3aR,6S,6aR)-6-hydroxyhexahydrofuro[3,2-b]furan-3-yl)oxy)phenyl)-2-methylquinolin-4(1H)-one] | < 6.00 | 95 µM | 0.039 mg/mL |  |  |  | 
COCCO[C@H]1CO[C@H]2[C@@H]1OC[C@@H]2Oc1ccc(-c2c(C)[nH]c3ccc(Cl)cc3c2=O)cc1 [Compound 17, 6-Chloro-3-(4-(((3S,3aR,6S,6aR)-6-(2-methoxyethoxy)hexahydrofuro[3,2-b]furan-3-yl)oxy)phenyl)-2-methylquinolin-4(1H)-one] | < 6.00 | 127 µM | 0.06 mg/mL |  |  |  | 
Cc1[nH]c2ccc(Cl)cc2c(=O)c1-c1ccc(Oc2ccc(OC(F)(F)F)cc2)cc1 [C00002] |  |  |  |  |  |  | pEC50 (D6): 8.49; pEC50 (Dd2): 8.25; pEC50 (Tm90-C2B): 8.64; pIC50 [5]: < 5.00
CC(=O)OC1COC2C(Oc3ccc(-c4c(C)[nH]c5ccc(Cl)cc5c4=O)cc3)COC12 (centres unmarked) [C00003] |  |  |  |  | < 6.00 | > 100000 nM | 
COc1cc2[nH]c(C)c(-c3ccc(Oc4ccc(OC(F)(F)F)cc4)cc3)c(=O)c2cc1Cl [C00001] |  |  |  |  |  |  | pEC50 (D6): 8.66; pEC50 (Dd2): 8.60; pEC50 (Tm90-C2B): 8.85; pIC50 [5]: < 5.00; Kinetic Solubility [6]: 16 µM
COCCOC1COC2C(Oc3ccc(-c4c(C)[nH]c5ccc(Cl)cc5c4=O)cc3)COC12 (centres unmarked) [C00006] |  |  |  | 127 µM (≈ 59.9 µg/mL) | < 6.00 | > 100000 nM | 
Cc1[nH]c2ccc(Cl)cc2c(=O)c1-c1ccc(OC2COC3C(O)COC23)cc1 (centres unmarked) [C00004] |  |  |  | 95 µM (≈ 39.3 µg/mL) | < 6.00 | > 100000 nM | 

More lines, main results first:

pEC50 [1, 7] | solubility at 20 h ([2]; read-out: Solubility) | solubility at 20 h ([2]; read-out: Solubility (mg/mL)) | solubility thermodynamic at 20 h [4] | pEC50 [1, 8] | SMILES | IC50 at 72 h [3] | further results
 |  |  | 22 µM (≈ 9.41 µg/mL) | < 6.00 | COC1COC2C(Oc3ccc(-c4c(C)[nH]c5ccc(Cl)cc5c4=O)cc3)COC12 (centres unmarked) [C00005] | > 100000 nM | 
< 6.00 |  |  |  |  | CC(=O)O[C@H]1CO[C@H]2[C@@H]1OC[C@@H]2Oc1ccc(-c2c(C)[nH]c3ccc(Cl)cc3c2=O)cc1 [Compound 14, (3S,3aR,6S,6aR)-6-(4-(6-Chloro-2-methyl-4-oxo-1,4-dihydroquinolin-3-yl)phenoxy)hexahydrofuro[3,2-b]furan-3-yl Acetate] |  | melting point: 298 to 299 °C; Solubility (M) ([2]; listed as JS-13): Unstable in buffer; also recorded: hydrolyzed under equilibrating conditions
< 6.00 | 22 µM | 0.009 mg/mL |  |  | CO[C@H]1CO[C@H]2[C@@H]1OC[C@@H]2Oc1ccc(-c2c(C)[nH]c3ccc(Cl)cc3c2=O)cc1 [Compound 16, 6-Chloro-3-(4-(((3S,3aR,6S,6aR)-6-methoxyhexahydrofuro[3,2-b]furan-3-yl)oxy)phenyl)-2-methylquinolin-4(1H)-one] |  | 
